From patent US20080096922A1, “Novel Sulfonamide derivative” (Dainippon Sumitomo Pharma Co., Ltd., priority 2004, published 2008)
Where a name gives a salt, the structure may show the parent alone.

Test system: LDL receptor
Test: Effects on an activity of a LDL receptor: uptake amount of DiI-LDL into HepG2 cell
Format: cell-based, human
Conditions: control group as 100%
Description: The 1,1′-dioctadecyl-3,3,3′,3′-tetramethylindocarbocyanine perchlorate (DiI)-labeled LDL (DiI-LDL) was prepared as follows. That is, a DiI (Invitrogen Corp., U.S.A) was mixed with a human LDL (Chemicon International, Inc., U.S.A) and the mixture was incubated at 37° C. for 8 hours. […] After centrifugation, the DiI-labeled LDL fraction was separated and dialyzed with a physiological saline to prepare the above desired solution.
The effects on a LDL receptor activity were determined as the uptake amount of DiI-LDL into HepG2 cell. The cultured human hepatic cell line HepG2 cell was purchased from the Dainippon Pharmaceuticals Co. Ltd. (Osaka, Japan). The HepG2 cells were seeded in a 96 well plate and were incubated in the Dulbecco's modified Eagle/F-12 (DMEM/F-12) medium containing 10% fetal bovine serum and antibiotics in a CO2 incubator at 37° C. for two to three days. After washing the cells, a DMEM/F-12 medium containing 5-10% lipoprotein-deficient serum, the test substrate and the antibiotics were added thereto and the cells were incubated at 37° C. for 19 hours. After adding DiI-LDL, the cells were incubated in a CO2 incubator at 37° C. for another 5 hours. The uptake amount of non-specific DiI-LDL was measured by adding 30 to 50 folds amount of the non-labeled LDL. After washing the cells with Dulbecco's phosphate buffer (Sigma Corp., U.S.A.), the Dulbecco's phosphate buffer was added to each well and then the uptake amount of DiI-LDL into the cell line were measured as the value of fluorescence. After measuring the fluorescence, the Dulbecco's phosphate buffer was removed and thereto was added 1N sodium hydroxide solution to dissolve the cells and the amount of protein was measured by using a part of the resulting solution. The effect on a LDL receptor activity by each compound was determined by calculating the ratio of the amount of fluorescence/the amount of protein, and by subtracting the non-specific uptake amount therefrom and then calculating the control group as 100%.

| Compound | Activity of (%) LDL receptor (10 μM) | also measured |
| --- | --- | --- |
| COc1cccc(C2(C(=O)NS(=O)(=O)Oc3ccccc3C(C)(C)C)CCN(c3ccccc3OC)CC2)c1 [Example 1-8, 2-tert-butylphenyl {[1-(2-methoxyphenyl)-4-(3-methoxyphenyl)piperidin-4-yl]carbonyl}sulfamate] | 134% | – |
| COc1cccc(C2(C(=O)NS(=O)(=O)Oc3c(C(C)C)cccc3C(C)C)CCN(c3ncccn3)CC2)c1 [Example 1-17, 2,6-diisopropylphenyl {[4-(3-methoxyphenyl)-1-pyrimidin-2-ylpiperidin-4-yl]carbonyl}sulfamate] | 120% | – |
| COc1cccc(C2(C(=O)NS(=O)(=O)Oc3c(C(C)C)cccc3C(C)C)CCN(c3nc4ccccc4s3)CC2)c1 [Example 1-19, 2,6-diisopropylphenyl {[1-(1,3-benzothiazol-2-yl)-4-(3-methoxyphenyl)piperidin-4-yl]carbonyl}sulfamate] | 132% | – |
| COc1cccc(C2(C(=O)NP(=O)(Cc3ccccc3C)OC)CCN(c3ccccc3OC)CC2)c1 (stereo not drawn) [Example 2-1, methyl N-{[1-(2-methoxyphenyl)-4-(3-methoxyphenyl)piperidin-4-yl]carbonyl}-P-(2-methylbenzyl)-phosphonamidate] | 140% | – |
| COc1cccc(C2(C(=O)NS(=O)(=O)Oc3c(C(C)C)cccc3C(C)C)CCC(Nc3ccccc3OC)CC2)c1 (stereo not drawn) [Example 3-2, 2,6-diisopropylphenyl ({1-(3-methoxyphenyl)-4-[(2-methoxyphenyl)amino]cyclohexyl}carbonyl)sulfamate] | 154% | – |
| COc1cccc([C@]2(CNS(C)(=O)=O)CC[C@@H](NC3CCNCC3)CC2)c1 [Example 10-3, N-{[cis-1-(3-methoxyphenyl)-4-(piperidin-4-ylamino)-cyclohexyl]methyl}methanesulfonamide dihydrochloride] | 162% | – |
| COc1cccc([C@]2(CNS(C)(=O)=O)CC[C@@H](NCc3ccc(S(C)(=O)=O)cc3)CC2)c1 [Example 12-2, N-[(cis-1-(3-methoxyphenyl)-4-{[4-(methylsulfonyl)benzyl]-amino}cyclohexyl)methyl]methanesulfonamide] | 142% | – |
| COc1cccc([C@]2(CNS(C)(=O)=O)CC[C@H](N3CCN(C)CC3)CC2)c1 [Example 13-1, N-{[trans-1-(3-methoxyphenyl)-4-(4-methylpiperazin-1-yl)cyclohexyl]methyl}methanesulfonamide] | 129% | – |
| COc1cccc([C@]2(CNS(C)(=O)=O)CC[C@@H](NC3CCN(Cc4ccc(NC(C)=O)cc4)CC3)CC2)c1 [Example 15-1, N-[4-({4-[(cis-4-(3-methoxyphenyl)-4-{[(methylsulfonyl)-amino]methyl}cyclohexyl)amino]piperidin-1-yl}methyl)phenyl]acetamide] | 192% | – |
| COc1cccc([C@]2(CNS(C)(=O)=O)CC[C@@H](NC3CCN(Cc4ccc(S(C)(=O)=O)cc4)CC3)CC2)c1 [Example 15-2, N-[(cis-1-(3-methoxyphenyl)-4-{1-[4-(methylsulfonyl)-benzyl]piperidin-4-ylamino}cyclohexyl)methyl]methanesulfonamide] | 223% | – |
| COc1cccc([C@]2(CNS(N)(=O)=O)CC[C@@H](NC3CCN(Cc4ccccc4)CC3)CC2)c1 [Example 18-1, N-{[cis-4-[(1-benzylpiperidin-4-yl)amino]-1-(3-methoxyphenyl)cyclohexyl]methyl}sulfamide] | 230% | – |
| COc1cccc([C@]2(CNS(N)(=O)=O)CC[C@@H](NCc3ccc(-n4ccnc4)cc3)CC2)c1 [Example 18-2, N-{[cis-4-{[4-(1H-imidazol-1-yl)benzyl]amino}-1-(3-methoxyphenyl)cyclohexyl]methyl}sulfamide] | 161% | – |
| COc1cccc([C@]2(CNS(N)(=O)=O)CC[C@@H](NCc3ccc(-n4cncn4)cc3)CC2)c1 [Example 18-3, N-[(cis-1-(3-methoxyphenyl)-4-{[4-(1H-1,2,4-triazol-1-yl)-benzyl]amino}cyclohexyl)methyl]sulfamide] | 154% | – |
| COc1cccc([C@]2(CNS(N)(=O)=O)CC[C@@H](NC(C)c3ccccc3)CC2)c1 (stereo partly drawn) [Example 20, N-({cis-1-(3-methoxyphenyl)-4-[(1-phenylethyl)amino]-cyclohexyl}methyl)sulfamide] | – | Activity of (%) LDL receptor (1 μM): 128% |
| COc1cccc([C@]2(CCNS(N)(=O)=O)CC[C@@H](NCc3ccc(-c4ccccc4)cc3)CC2)c1.Cl [Example 22, N-{2-[trans-4-[(biphenyl-4-ylmethyl)amino]-1-(3-methoxyphenyl)cyclohexyl]ethyl}sulfamide hydrochloride] | – | Activity of (%) LDL receptor (3 μM): 156% |
| COc1cccc([C@]2(CNS(C)(=O)=O)CC[C@@H](NCc3ccc(-c4ccccc4)cc3)CC2)c1 [Example 24, N-{[cis-4-[(biphenyl-4-ylmethyl)amino]-1-(3-methoxyphenyl)cyclohexyl]methyl}methanesulfonamide] | – | Activity of (%) LDL receptor (1 μM): 238% |
| COc1cccc([C@]2(CNS(=O)(=O)c3ccc(C)cc3)CC[C@@H](NCc3ccc(-c4ccccc4)cc3)CC2)c1 [Example 25, N-{[cis-4-[(biphenyl-4-ylmethyl)amino]-1-(3-methoxyphenyl)cyclohexyl]methyl}-4-methylbenzenesulfonamide] | – | Activity of (%) LDL receptor (3 μM): 153% |
| COc1cccc(C2(CNS(C)(=O)=O)CCN(c3ccccc3OC)CC2)c1 [Example 27-1, N-{[1-(2-methoxyphenyl)-4-(3-methoxyphenyl)piperidin-4-yl]methyl}methanesulfonamide] | 108% | – |
| COc1cccc(C2(C(=O)NS(N)(=O)=O)CCN(c3ncccn3)CC2)c1 [Example 28-1, N-(aminosulfonyl)-4-(3-methoxyphenyl)-1-pyrimidin-2-ylpiperidine-4-carboxamide] | 186% | – |
| COc1cccc(C2(C(=O)NS(=O)(=O)NC(C)c3ccccc3)CCN(c3ncccn3)CC2)c1 (stereo not drawn) [Example 28-6, 4-(3-methoxyphenyl)-N-{[(1-phenylethyl)amino]sulfonyl}-1-pyrimidin-2-ylpiperidine-4-carboxamide] | 127% | – |
| COc1cccc(C2(NS(=O)(=O)NC(=O)c3ccc(Cl)cc3)CCN(c3ncccn3)CC2)c1 [Example 34, 4-chloro-N-({[4-(3-methoxyphenyl)-1-pyrimidin-2-yl-piperidin-4-yl]amino}sulfonyl)benzamide] | 139% | – |
| COc1cccc(C2(CNS(=O)(=O)c3ccc(C)cc3)CCN(C(c3ccccc3)c3ccccc3)CC2)c1 [Example 36, N-{[1-(diphenylmethyl)-4-(3-methoxyphenyl)piperidin-4-yl]methyl}-4-methylbenzenesulfonamide] | 122% | – |
| COc1cccc([C@]2(CNS(N)(=O)=O)CC[C@@H](NCc3ccc(S(N)(=O)=O)cc3)CC2)c1.Cl [Example 38, 4-({[cis-4-{[(aminosulfonyl)amino]methyl}-4-(3-methoxyphenyl)cyclohexyl]amino}methyl)benzenesulfonamide hydrochloride] | 150% | – |
| COc1cccc([C@]2(CNS(=O)(=O)NC(=O)OC(C)(C)C)CC[C@@H](NCc3ccc(-c4ccccc4)cc3)CC2)c1 [Example 41, tert-butyl [({[cis-4-[(biphenyl-4-ylmethyl)amino]-1-(3-methoxyphenyl)cyclohexyl]methyl}amino)sulfonyl]carbamate] | 173% | – |
